Where a SMILES comes first, the peptide text is derived from it.
How the values were obtained:
[1] = test system: MDRST 8009; assay type: cell-based, Salmonella typhimurium; conditions: agent alone
How it was run: (§1)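 Peptides were serially diluted twofold in Mueller-Hinton medium and combined 1:1 with bacterial suspensions prepared at 2×10^6 CFU. Readout was the minimal inhibitory concentration, i.e. the lowest concentration with no growth.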

[2] = test system: E. coli; experiment: microbe, parasite or virus in culture; assay type: cell-based, Escherichia coli; conditions: for Minimal inhibitory concentration MIC: 16 h
How it was run: as §1

[3] = test system: MDREC 1229; experiment: microbe, parasite or virus in culture; assay type: cell-based, Escherichia coli
How it was run: as §1

[4] = test system: gram-negative bacteria; experiment: MIC, summary statements for gram-negative bacteria; assay type: cell-based; conditions: most of the gram-negative bacteria
Description: For the antibacterial activity, a minimal inhibitory concentration (MIC) of a peptide in which fungus bodies were not split in an MH medium with sufficient nutrients was measured.
Specifically, the strains described in the following [Table 2] were purchased and diluted with an MH medium such that the number of bacteria was 2×10^6 colony-forming units (CFUs), 100 μl of each of the diluted strains was aliquoted into a 96-well microtiter plate, and then 100 μl of a peptide solution diluted with the MH medium (solution diluted stepwise at 2: 1) was added to each well.

[5] = test system: A. baumannii; experiment: MIC of antibiotic during combined treatment with antimicrobial peptide; assay type: cell-based, Acinetobacter baumannii; conditions: for Synergistic effect of antibacterial activity with existing antibiotics compared with PapMA-1: A. baumannii and MDRAB 12035; for Antibiotic MIC, Erythromycin / Antibiotic MIC, Linezolid / Antibiotic MIC, Vancomycin: A. baumannii
How it was run: (§2)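 MIC values for mixed peptide plus antibiotic solutions were measured in MH medium.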

[6] = test system: E. coli; experiment: as above; assay type: cell-based, Escherichia coli; conditions: for Synergistic effect of antibacterial activity with existing antibiotics compared with PapMA-1: E. coli and MDREC1229; for Antibiotic MIC, Erythromycin / Antibiotic MIC, Linezolid / Antibiotic MIC, Vancomycin: E. coli
How it was run: as §2

[7] = test system: multi-drug resistant bacteria; experiment: MIC, summary statements for multi-drug resistant bacteria; assay type: cell-based
How it was run: as §1

[8] = combined with peptide at 1 μg/ml
[9] = combined with peptide at 2 μg/ml
[10] = combined with peptide at 4 μg/ml
[11] = combined with peptide at 6 μg/ml
[12] = combined with peptide at 8 μg/ml
[13] = combined with peptide at 16 μg/ml
[14] = combined with peptide at 32 μg/ml
[15] = combined with peptide at 64 μg/ml
[16] = erythromycin combined with peptide at 1 μg/ml
[17] = erythromycin combined with peptide at 2 μg/ml
[18] = erythromycin combined with peptide at 4 μg/ml
[19] = erythromycin combined with peptide at 6 μg/ml
[20] = erythromycin combined with peptide at 8 μg/ml
[21] = erythromycin combined with peptide at 16 μg/ml
[22] = erythromycin combined with peptide at 32 μg/ml
[23] = erythromycin combined with peptide at 64 μg/ml
[24] = linezolid combined with peptide at 1 μg/ml
[25] = linezolid combined with peptide at 2 μg/ml
[26] = linezolid combined with peptide at 4 μg/ml
[27] = linezolid combined with peptide at 6 μg/ml
[28] = linezolid combined with peptide at 8 μg/ml
[29] = linezolid combined with peptide at 16 μg/ml
[30] = linezolid combined with peptide at 32 μg/ml
[31] = linezolid combined with peptide at 64 μg/ml
[32] = vancomycin combined with peptide at 1 μg/ml
[33] = vancomycin combined with peptide at 2 μg/ml
[34] = vancomycin combined with peptide at 4 μg/ml
[35] = vancomycin combined with peptide at 6 μg/ml
[36] = vancomycin combined with peptide at 8 μg/ml
[37] = vancomycin combined with peptide at 16 μg/ml
[38] = vancomycin combined with peptide at 32 μg/ml
[39] = vancomycin combined with peptide at 64 μg/ml

CC[C@H](C)[C@H](NC(=O)[C@H](CCCCN)NC(=O)[C@H](Cc1c[nH]c2ccccc12)NC(=O)[C@@H](N)CCCNC(=N)N)C(=O)N[C@@H](Cc1ccccc1)C(=O)N[C@@H](CCCCN)C(=O)N[C@@H](CCCCN)C(=O)N[C@H](C(=O)N1CCC[C@H]1C(=O)N[C@@H](CCCCN)C(=O)N[C@@H](CC(C)C)C(=O)N[C@@H](CC(C)C)C(=O)N[C@@H](Cc1c[nH]cn1)C(=O)N[C@@H](CO)C(=O)N[C@@H](CC(C)C)C(=O)N[C@@H](CCCCN)C(=O)N[C@@H](CCCCN)C(=O)N[C@@H](Cc1ccccc1)C(N)=O)[C@@H](C)CC [PapMA-8, RWK IFK KIP KLL HSL KKF-NH2] (H-RWKIFKKIPKLLHSLKKF-NH2; N-terminus assumed)
16 µg/mL: Antibiotic MIC, Linezolid [5, 11] | Antibiotic MIC, Vancomycin [5, 11] | Antibiotic MIC, Vancomycin [6, 36]
at least twice as high: Antibacterial activity relative to PapMA-1 ([2]; E. coli)
1 µg/mL: Antibiotic MIC, Linezolid [5, 13]
8 µg/mL: Antibiotic MIC, Erythromycin [5, 9] | Antibiotic MIC, Vancomycin [5, 12] | Antibiotic MIC, Erythromycin [6, 18] | Antibiotic MIC, Linezolid [6, 28]
higher level than the PapMA-1 peptide: Synergistic effect of antibacterial activity with existing antibiotics compared with PapMA-1 [5] | Synergistic effect of antibacterial activity with existing antibiotics compared with PapMA-1 [6]
4 µg/mL: Antibiotic MIC, Erythromycin [5, 10] | Antibiotic MIC, Erythromycin [5, 11] | Antibiotic MIC, Linezolid [5, 12] | Antibiotic MIC, Vancomycin [5, 13] | Antibiotic MIC, Erythromycin [6, 19]
64 µg/mL: Minimal inhibitory concentration MIC [1] | Minimal inhibitory concentration MIC [3] | Antibiotic MIC, Linezolid [5, 9] | Antibiotic MIC, Erythromycin [6, 17] | Antibiotic MIC, Vancomycin [6, 34]
0.5 µg/mL: Antibiotic MIC, Erythromycin [6, 20]
2 µg/mL: Antibiotic MIC, Linezolid [6, 29] | Antibiotic MIC, Vancomycin [6, 37]
128 µg/mL: Antibiotic MIC, Erythromycin [6, 16] | Antibiotic MIC, Linezolid [6, 26]
>128 µg/mL: Antibiotic MIC, Linezolid [5, 8] | Antibiotic MIC, Vancomycin [5, 8] | Antibiotic MIC, Vancomycin [5, 9] | Antibiotic MIC, Linezolid [6, 24] | Antibiotic MIC, Linezolid [6, 25] | Antibiotic MIC, Vancomycin [6, 32] | Antibiotic MIC, Vancomycin [6, 33]
same or higher: Antibacterial activity relative to PapMA-1, PapMA-2, PapMA-3 and PapMA-4 [4]
0.125 µg/mL: Antibiotic MIC, Erythromycin [5, 13]
0 µg/mL: Antibiotic MIC, Erythromycin [5, 14] | Antibiotic MIC, Linezolid [5, 14] | Antibiotic MIC, Vancomycin [5, 14] | Antibiotic MIC, Erythromycin [5, 15] | Antibiotic MIC, Linezolid [5, 15] | Antibiotic MIC, Vancomycin [5, 15] | Antibiotic MIC, Erythromycin [6, 22] | Antibiotic MIC, Erythromycin [6, 23] | Antibiotic MIC, Linezolid [6, 30] | Antibiotic MIC, Linezolid [6, 31] | Antibiotic MIC, Vancomycin [6, 38] | Antibiotic MIC, Vancomycin [6, 39]
0.25 µg/mL: Antibiotic MIC, Erythromycin [5, 12] | Antibiotic MIC, Erythromycin [6, 21]
32 µg/mL: Minimal inhibitory concentration MIC [2] | Antibiotic MIC, Erythromycin [5, 8] | Antibiotic MIC, Linezolid [5, 10] | Antibiotic MIC, Vancomycin [5, 10] | Antibiotic MIC, Linezolid [6, 27] | Antibiotic MIC, Vancomycin [6, 35]

CC[C@H](C)[C@H](NC(=O)[C@H](CCCCN)NC(=O)[C@H](Cc1c[nH]c2ccccc12)NC(=O)[C@@H](N)CCCNC(=N)N)C(=O)N[C@@H](Cc1ccccc1)C(=O)N[C@@H](CCCCN)C(=O)N[C@@H](CCCCN)C(=O)N[C@H](C(=O)N1CCC[C@H]1C(=O)N[C@@H](CCCCN)C(=O)N[C@@H](Cc1ccccc1)C(=O)N[C@@H](CC(C)C)C(=O)N[C@@H](Cc1c[nH]cn1)C(=O)N[C@@H](CCC(=O)O)C(=O)N[C@@H](C)C(=O)N[C@@H](CCCCN)C(=O)N[C@@H](CCCCN)C(=O)N[C@@H](Cc1c[nH]c2ccccc12)C(N)=O)[C@@H](C)CC [PapMA-14, RWK IFK KIP KFL HEA KKW-NH2] (H-RWKIFKKIPKFLHEAKKW-NH2; N-terminus assumed)
twice to four times higher: Antibacterial activity relative to PapMA-1 [7]
8 µg/mL: Minimal inhibitory concentration MIC [2] | Antibiotic MIC, Erythromycin [5, 9] | Antibiotic MIC, Linezolid [5, 10] | Antibiotic MIC, Vancomycin [5, 10] | Antibiotic MIC, Linezolid [6, 26] | Antibiotic MIC, Vancomycin [6, 35]
64 µg/mL: Antibiotic MIC, Vancomycin [5, 9]
1 µg/mL: Antibiotic MIC, Linezolid [5, 11] | Antibiotic MIC, Vancomycin [5, 12] | Antibiotic MIC, Erythromycin [6, 19]
128 µg/mL: Antibiotic MIC, Linezolid [5, 8] | Antibiotic MIC, Erythromycin [6, 16] | Antibiotic MIC, Linezolid [6, 25] | Antibiotic MIC, Vancomycin [6, 33]
16 µg/mL: Minimal inhibitory concentration MIC [3] | Peptide MIC, peptide alone [3] | Antibiotic MIC, Erythromycin [5, 8] | Antibiotic MIC, Vancomycin [6, 34]
higher level than the PapMA-1 peptide: Synergistic effect of antibacterial activity with existing antibiotics compared with PapMA-1 [5] | Synergistic effect of antibacterial activity with existing antibiotics compared with PapMA-1 [6]
32 µg/mL: Minimal inhibitory concentration MIC [1] | Antibiotic MIC, Linezolid [5, 9] | Antibiotic MIC, Erythromycin [6, 17]
>128 µg/mL: Antibiotic MIC, Vancomycin [5, 8] | Antibiotic MIC, Linezolid [6, 24] | Antibiotic MIC, Vancomycin [6, 32]
0.5 µg/mL: Antibiotic MIC, Erythromycin [5, 11] | Antibiotic MIC, Linezolid [5, 12]
2 µg/mL: Antibiotic MIC, Erythromycin [5, 10] | Antibiotic MIC, Vancomycin [5, 11] | Antibiotic MIC, Erythromycin [6, 18] | Antibiotic MIC, Linezolid [6, 27]
0.25 µg/mL: Antibiotic MIC, Erythromycin [5, 12]
0 µg/mL: Antibiotic MIC, Erythromycin [5, 13] | Antibiotic MIC, Linezolid [5, 13] | Antibiotic MIC, Vancomycin [5, 13] | Antibiotic MIC, Erythromycin [5, 14] | Antibiotic MIC, Linezolid [5, 14] | Antibiotic MIC, Vancomycin [5, 14] | Antibiotic MIC, Erythromycin [5, 15] | Antibiotic MIC, Linezolid [5, 15] | Antibiotic MIC, Vancomycin [5, 15] | Antibiotic MIC, Erythromycin [6, 20] | Antibiotic MIC, Erythromycin [6, 21] | Antibiotic MIC, Erythromycin [6, 22] | Antibiotic MIC, Erythromycin [6, 23] | Antibiotic MIC, Linezolid [6, 28] | Antibiotic MIC, Linezolid [6, 29] | Antibiotic MIC, Linezolid [6, 30] | Antibiotic MIC, Linezolid [6, 31] | Antibiotic MIC, Vancomycin [6, 36] | Antibiotic MIC, Vancomycin [6, 37] | Antibiotic MIC, Vancomycin [6, 38] | Antibiotic MIC, Vancomycin [6, 39]
